Paper PMC8037182, “Solvothermal Synthesis of Multiple Dihydropyrimidinones at a Time as Inhibitors of Eg5” (Molecules, 2021)

Columns and labels:
Caco-2 cell line = assay: Cytotoxicity MTS assay, Caco-2 cell line; type: cell-based; settings: for OD490 Mean / OD490 Well 1 / OD490 Well 2 / OD490 Well 3: Caco-2 cell line
Outline: (§1)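 MTS antiproliferation; 1000 cells/well, 24 h pre-incubation; compound 0.5–100 µM final, 24 h exposure; vehicle 0.025% DMSO; monastrol positive control; MTS 2 h, 37 °C, 5% CO2; A490; IC50 by non-linear regression of % viability vs concentration; three independent duplicate runs.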

T24 cell line = assay: Cytotoxicity MTS assay, T24 cell line; type: cell-based; settings: for OD490 Mean / OD490 Well 1 / OD490 Well 2 / OD490 Well 3: T24 cell line;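 for OD490 Mean: blank control wells received 0.025% DMSO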;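 for OD490 Well 1: blank control wells received 0.025% DMSO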;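 for OD490 Well 2: blank control wells received 0.025% DMSO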;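 for OD490 Well 3: blank control wells received 0.025% DMSO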
Outline: as §1

SMILES: CCOC(=O)c1[nH]c(C2NC(=O)NC(C)=C2C(=O)Nc2ccccc2C)c(C(=O)OC)c1C (centres unmarked) [D4]
- OD490 Mean (Caco-2 cell line; 0.5μM, first assay): 0.5704
- OD490 Well 1 (Caco-2 cell line; 0.5μM, first assay): 0.5884
- OD490 Well 2 (Caco-2 cell line; 0.5μM, first assay): 0.5582
- OD490 Well 3 (Caco-2 cell line; 0.5μM, first assay): 0.5647
- OD490 Mean (Caco-2 cell line; 0.5μM, second assay): 0.5955
- OD490 Well 1 (Caco-2 cell line; 0.5μM, second assay): 0.5407
- OD490 Well 2 (Caco-2 cell line; 0.5μM, second assay): 0.6416
- OD490 Well 3 (Caco-2 cell line; 0.5μM, second assay): 0.6041
- OD490 Mean (Caco-2 cell line; 0.5μM, third assay): 0.6609
- OD490 Well 1 (Caco-2 cell line; 0.5μM, third assay): 0.6698
- OD490 Well 2 (Caco-2 cell line; 0.5μM, third assay): 0.6201
- OD490 Well 3 (Caco-2 cell line; 0.5μM, third assay): 0.6928
- OD490 Mean (Caco-2 cell line; 1μM, first assay): 0.5753
- OD490 Well 1 (Caco-2 cell line; 1μM, first assay): 0.5948
- OD490 Well 2 (Caco-2 cell line; 1μM, first assay): 0.5673
- OD490 Well 3 (Caco-2 cell line; 1μM, first assay): 0.5637
- OD490 Mean (Caco-2 cell line; 1μM, second assay): 0.6402
- OD490 Well 1 (Caco-2 cell line; 1μM, second assay): 0.6433
- OD490 Well 2 (Caco-2 cell line; 1μM, second assay): 0.6589
- OD490 Well 3 (Caco-2 cell line; 1μM, second assay): 0.6185
- OD490 Mean (Caco-2 cell line; 1μM, third assay): 0.6218
- OD490 Well 1 (Caco-2 cell line; 1μM, third assay): 0.6635
- OD490 Well 2 (Caco-2 cell line; 1μM, third assay): 0.6890
- OD490 Well 3 (Caco-2 cell line; 1μM, third assay): 0.5129
- OD490 Mean (Caco-2 cell line; 10μM, first assay): 0.5338
- OD490 Well 1 (Caco-2 cell line; 10μM, first assay): 0.5500
- OD490 Well 2 (Caco-2 cell line; 10μM, first assay): 0.5282
- OD490 Well 3 (Caco-2 cell line; 10μM, first assay): 0.5233
- OD490 Mean (Caco-2 cell line; 10μM, second assay): 0.5742
- OD490 Well 1 (Caco-2 cell line; 10μM, second assay): 0.5277
- OD490 Well 2 (Caco-2 cell line; 10μM, second assay): 0.6414
- OD490 Well 3 (Caco-2 cell line; 10μM, second assay): 0.5536
- OD490 Mean (Caco-2 cell line; 10μM, third assay): 0.5630
- OD490 Well 1 (Caco-2 cell line; 10μM, third assay): 0.5899
- OD490 Well 2 (Caco-2 cell line; 10μM, third assay): 0.5614
- OD490 Well 3 (Caco-2 cell line; 10μM, third assay): 0.5377
- OD490 Mean (Caco-2 cell line; 25μM, first assay): 0.5869
- OD490 Well 1 (Caco-2 cell line; 25μM, first assay): 0.5783
- OD490 Well 2 (Caco-2 cell line; 25μM, first assay): 0.5766
- OD490 Well 3 (Caco-2 cell line; 25μM, first assay): 0.6058
- OD490 Mean (Caco-2 cell line; 25μM, second assay): 0.5033
- OD490 Well 1 (Caco-2 cell line; 25μM, second assay): 0.5352
- OD490 Well 2 (Caco-2 cell line; 25μM, second assay): 0.4777
- OD490 Well 3 (Caco-2 cell line; 25μM, second assay): 0.4969
- OD490 Mean (Caco-2 cell line; 25μM, third assay): 0.5111
- OD490 Well 1 (Caco-2 cell line; 25μM, third assay): 0.5123
- OD490 Well 2 (Caco-2 cell line; 25μM, third assay): 0.4876
- OD490 Well 3 (Caco-2 cell line; 25μM, third assay): 0.5333
- OD490 Mean (Caco-2 cell line; 50μM, first assay): 0.5039
- OD490 Well 1 (Caco-2 cell line; 50μM, first assay): 0.4576
- OD490 Well 2 (Caco-2 cell line; 50μM, first assay): 0.5055
- OD490 Well 3 (Caco-2 cell line; 50μM, first assay): 0.5485
- OD490 Mean (Caco-2 cell line; 50μM, second assay): 0.4399
- OD490 Well 1 (Caco-2 cell line; 50μM, second assay): 0.41
- OD490 Well 2 (Caco-2 cell line; 50μM, second assay): 0.4612
- OD490 Well 3 (Caco-2 cell line; 50μM, second assay): 0.4486
- OD490 Mean (Caco-2 cell line; 50μM, third assay): 0.4077
- OD490 Well 1 (Caco-2 cell line; 50μM, third assay): 0.4412
- OD490 Well 2 (Caco-2 cell line; 50μM, third assay): 0.4698
- OD490 Well 3 (Caco-2 cell line; 50μM, third assay): 0.3120
- OD490 Mean (Caco-2 cell line; 100μM, first assay): 0.3850
- OD490 Well 1 (Caco-2 cell line; 100μM, first assay): 0.4202
- OD490 Well 2 (Caco-2 cell line; 100μM, first assay): 0.3796
- OD490 Well 3 (Caco-2 cell line; 100μM, first assay): 0.3553
- OD490 Mean (Caco-2 cell line; 100μM, second assay): 0.3934
- OD490 Well 1 (Caco-2 cell line; 100μM, second assay): 0.4418
- OD490 Well 2 (Caco-2 cell line; 100μM, second assay): 0.3643
- OD490 Well 3 (Caco-2 cell line; 100μM, second assay): 0.3741
- OD490 Mean (Caco-2 cell line; 100μM, third assay): 0.4011
- OD490 Well 1 (Caco-2 cell line; 100μM, third assay): 0.3698
- OD490 Well 2 (Caco-2 cell line; 100μM, third assay): 0.4013
- OD490 Well 3 (Caco-2 cell line; 100μM, third assay): 0.4321
- IC50 (Caco-2 cell line; MTS assay, 24 h exposure): 80.5 µM
- IC50 (T24 cell line; MTS assay, 24 h exposure): 129 µM
- OD490 Mean (T24 cell line; 0.5μM, first assay): 1.9335
- OD490 Well 1 (T24 cell line; 0.5μM, first assay): 1.4364
- OD490 Well 2 (T24 cell line; 0.5μM, first assay): 2.2473
- OD490 Well 3 (T24 cell line; 0.5μM, first assay): 2.1169
- OD490 Mean (T24 cell line; 0.5μM, second assay): 1.7407
- OD490 Well 1 (T24 cell line; 0.5μM, second assay): 1.6852
- OD490 Well 2 (T24 cell line; 0.5μM, second assay): 1.7785
- OD490 Well 3 (T24 cell line; 0.5μM, second assay): 1.7585
- OD490 Mean (T24 cell line; 0.5μM, third assay): 1.7395
- OD490 Well 1 (T24 cell line; 0.5μM, third assay): 1.7423
- OD490 Well 2 (T24 cell line; 0.5μM, third assay): 1.7741
- OD490 Well 3 (T24 cell line; 0.5μM, third assay): 1.7022
- OD490 Mean (T24 cell line; 1μM, first assay): 2.0004
- OD490 Well 1 (T24 cell line; 1μM, first assay): 1.9146
- OD490 Well 2 (T24 cell line; 1μM, first assay): 1.8237
- OD490 Well 3 (T24 cell line; 1μM, first assay): 2.2630
- OD490 Mean (T24 cell line; 1μM, second assay): 1.6895
- OD490 Well 1 (T24 cell line; 1μM, second assay): 1.7235
- OD490 Well 2 (T24 cell line; 1μM, second assay): 1.6895
- OD490 Well 3 (T24 cell line; 1μM, second assay): 1.6555
- OD490 Mean (T24 cell line; 1μM, third assay): 1.7159
- OD490 Well 1 (T24 cell line; 1μM, third assay): 1.7423
- OD490 Well 2 (T24 cell line; 1μM, third assay): 1.7020
- OD490 Well 3 (T24 cell line; 1μM, third assay): 1.7033
- OD490 Mean (T24 cell line; 10μM, first assay): 1.7700
- OD490 Well 1 (T24 cell line; 10μM, first assay): 1.7289
- OD490 Well 2 (T24 cell line; 10μM, first assay): 1.7432
- OD490 Well 3 (T24 cell line; 10μM, first assay): 1.8379
- OD490 Mean (T24 cell line; 10μM, second assay): 1.7224
- OD490 Well 1 (T24 cell line; 10μM, second assay): 1.6895
- OD490 Well 2 (T24 cell line; 10μM, second assay): 1.7125
- OD490 Well 3 (T24 cell line; 10μM, second assay): 1.7652
- OD490 Mean (T24 cell line; 10μM, third assay): 1.7024
- OD490 Well 1 (T24 cell line; 10μM, third assay): 1.6647
- OD490 Well 2 (T24 cell line; 10μM, third assay): 1.7424
- OD490 Well 3 (T24 cell line; 10μM, third assay): 1.7000
- OD490 Mean (T24 cell line; 25μM, first assay): 1.7511
- OD490 Well 1 (T24 cell line; 25μM, first assay): 1.6328
- OD490 Well 2 (T24 cell line; 25μM, first assay): 1.8078
- OD490 Well 3 (T24 cell line; 25μM, first assay): 1.8128
- OD490 Mean (T24 cell line; 25μM, second assay): 1.5821
- OD490 Well 1 (T24 cell line; 25μM, second assay): 1.5660
- OD490 Well 2 (T24 cell line; 25μM, second assay): 1.5848
- OD490 Well 3 (T24 cell line; 25μM, second assay): 1.5954
- OD490 Mean (T24 cell line; 25μM, third assay): 1.5535
- OD490 Well 1 (T24 cell line; 25μM, third assay): 1.5385
- OD490 Well 2 (T24 cell line; 25μM, third assay): 1.5232
- OD490 Well 3 (T24 cell line; 25μM, third assay): 1.5987
- OD490 Mean (T24 cell line; 50μM, first assay): 1.6313
- OD490 Well 1 (T24 cell line; 50μM, first assay): 1.6866
- OD490 Well 2 (T24 cell line; 50μM, first assay): 1.7561
- OD490 Well 3 (T24 cell line; 50μM, first assay): 1.4513
- OD490 Mean (T24 cell line; 50μM, second assay): 1.4096
- OD490 Well 1 (T24 cell line; 50μM, second assay): 1.4425
- OD490 Well 2 (T24 cell line; 50μM, second assay): 1.4212
- OD490 Well 3 (T24 cell line; 50μM, second assay): 1.3652
- OD490 Mean (T24 cell line; 50μM, third assay): 1.4169
- OD490 Well 1 (T24 cell line; 50μM, third assay): 1.4284
- OD490 Well 2 (T24 cell line; 50μM, third assay): 1.4022
- OD490 Well 3 (T24 cell line; 50μM, third assay): 1.4202
- OD490 Mean (T24 cell line; 100μM, first assay): 1.4469
- OD490 Well 1 (T24 cell line; 100μM, first assay): 1.4538
- OD490 Well 2 (T24 cell line; 100μM, first assay): 1.4557
- OD490 Well 3 (T24 cell line; 100μM, first assay): 1.4313
- OD490 Mean (T24 cell line; 100μM, second assay): 1.2781
- OD490 Well 1 (T24 cell line; 100μM, second assay): 1.3325
- OD490 Well 2 (T24 cell line; 100μM, second assay): 1.2654
- OD490 Well 3 (T24 cell line; 100μM, second assay): 1.2365
- OD490 Mean (T24 cell line; 100μM, third assay): 1.2819
- OD490 Well 1 (T24 cell line; 100μM, third assay): 1.2539
- OD490 Well 2 (T24 cell line; 100μM, third assay): 1.3332
- OD490 Well 3 (T24 cell line; 100μM, third assay): 1.2585
